The record followed here is US12226450B2, “Peptides and methods for treating disease” (OP-T LLC, priority 2019, dated 2025).

Where no end group is shown, it is not given here.

In data set [1] the test system is CD4+ and CD8+ cells. Description: CD4/CD8 ratio in blood of peptide-treated NOD mice by flow cytometry. Format: in vivo, mouse. The settings on record: 25 ug tail vein weekly. The procedure: (§1) Peptides were designed based on the amino acid sequence of mouse CD154 protein (SEQ ID NO:1) in the SwissPro database. […] Weekly after the initial injection, another 25 ug of peptide (or 100 ul of PBS in the case of the Control mice) was injected into the tail vein. At 10 weeks of age, mice were monitored for diabetes, as indicated by a blood glucose level greater than 250 mg/dL for three consecutive days. During this time, blood was also taken from the tail vein, or by sub-mandibular venal puncture, and the level of CD4+ and CD8+ cells determined by flow cytometry using antibodies for CD4 protein and CD8 protein.
For orientation: In flow cytometry, cells or beads pass a laser one at a time.

Data set [2] has as its system CD3+CD4+CD40+(Th40) splenic cells. Description: Inflammatory cytokines in cultured Th40 splenic cells from ApoE−/− mice. Format: cell-based, mouse. The following applies: overnight culture, varying concentrations, compared to the untreated cells. The procedure:
FIG. 24 provides a graph showing that different concentrations of peptide of SEQ ID NO:46 affects or influences levels of IL-2, IFNγ, and IL-17A. In this study, CD3+CD4+CD40+(Th40) splenic cells were purified from ApoE^−/− with cardiovascular disease. The cells were cultured overnight in the absence/presence of varying concentrations of KGYY6 peptide.

The test system of data set [3] is NOD mice. Description: Development of diabetes in NOD mice treated with CD154 peptide fragments. The format is in vivo, mouse. The settings on record: 25 ug (1 mg/kg) tail vein weekly from 6 weeks of age; diabetes = blood glucose greater than 250 mg/dL for three consecutive days. The procedure:
as §1

The subject of data set [4] is diabetic dogs. Description: Safety in treated diabetic dogs: blood counts, chemistry panels, adverse effects. Format: in vivo, dog. Here is the method: Five diabetic dogs including 4 new onset and 1 long-term, (diagnosis greater than 3 years) were recruited into a test case study. The dogs were enrolled at Colorado State University Veterinary Hospital (CSU-VH), Fort Collins, CO for the study. Each dog was assessed by a Board-Certified Veterinarian. Blood samples were collected from each dog and analyzed by chemistry panels to determine general health, as well as assessed by complete physical examination. The dogs were each confirmed diabetic, blood glucose ranging from 300-600 mg/dl but were generally in good health otherwise. One dog was diagnosed with hypertension, and two dogs had eye problems, partial blindness and the long-term dog was completely blind from diabetes.
Breeds were varied and sizes ranged from 8 to 27 kilos. Four of the dogs had been diagnosed for 3 months or less, 1 dog was diagnosed for 3.5 years. All dogs were receiving daily insulin treatments. The route of administration was IV infusion of SEQ ID NO. 13 over 30 minutes at 2 mg/kg on Days 0, 4, 8 and then weekly thereafter for a total of 8 weeks. The dogs were treated with the dog-sequence (SEQ ID NO: 13—VLRWAPKGYYTISSN); acetate salt form; brought up in sterile PBS for injection; injection was done as a slow infusion over 30 minutes. […] The dog diagnosed for 3.5 years experienced an improvement of time-in-range (percentage of a 24-hour period that blood glucose ranged between 80 and 160) from 10% to 80% for 5 consecutive days in the 5th week and achieved this for the last 3 test weeks. Typical responses in all five dogs was that 3-5 days post treatment improvements in blood glucose occurred. For example, blood glucose would move from 400 to 120, remain stable for 2 days but return to elevated levels. In all the treated dogs, glucose spikes were at lower levels, 300 mg/dl as a high, compared to >500 mg/dl prior to treatment. In fact, prior to treatment, none of the dogs recorded blood glucose levels less than 350. During treatment dogs were at 200 mg/dl or lower the majority of the time and in many cases were at 150 mg/dl or less.
Prior to treatment blood samples were analyzed for blood glucose levels and Th40 cell percentages in peripheral blood. These pre-treatment Th40 cell levels and blood glucose levels can be seen in FIGS. 15, 16, and 17. In FIG. 15, controls are blood samples from test beagles used by CSU-VH and were all confirmed non-diabetic (i.e. not diabetic). […] On day 0, prior to the first treatment, blood was collected from leg vein and analyzed for Th40 cell percentages. […] Samples were analyzed for Th40 cells by flow cytometry. Furthermore, isolated blood was processed to obtain lymphocytes. […] The percentage of CD4+CD40+ as a subset of total CD4+ cells was determined and graphed. […]

Data set [5] has as its system NOD mice. Description: Hyperglycemia in diabetic NOD mice treated with KGYY-15. Format: in vivo, mouse. The settings on record: control treatments, blood glucose between 250-400 mg/dl. Here is the method:
In this study, NOD mice, blood glucose between 250-400 mg/dl were treated with KGYY-15. Control mice were treated with MR1 an anti-CD154 antibody or scrambled 15-mer peptide (SEQ ID NO: 17). KGYY-15 (SEQ ID NO: 11) reduced blood glucose in 57% of mice treated, the controls MR1 and scrambled 15-mer peptide had no effect.

Where [6] appears, read: diabetic dogs, IV infusion 2 mg/kg.

For the compound `CSCC[C@H](NC(=O)[C@@H](NC(=O)[C@H](Cc1ccc(O)cc1)NC(=O)[C@H](Cc1ccc(O)cc1)NC(=O)CNC(=O)[C@H](CCCCN)NC(=O)[C@H](CCCCN)NC(=O)[C@H](C)NC(=O)[C@H](Cc1c[nH]c2ccccc12)NC(=O)[C@H](CCC(N)=O)NC(=O)[C@H](CC(C)C)NC(=O)[C@@H](N)C(C)C)[C@@H](C)O)C(=O)N[C@@H](CCCCN)C(=O)N[C@@H](CO)C(=O)N[C@@H](CC(N)=O)C(=O)O` [15-mer peptide, VLQWAKKGYYTMKSN], the “compromise of the immune system, as determined by the CD4/CD8 ratio” value in data set [1] is “did not result in compromise of the immune system”.
“AKKGYY (not fully specified (C-terminus)) [KGYY6]”: in data set [2], the IFNγ entry is listed as “varying degrees of reduction”, the IL-2 result is given as “varying degrees of reduction” and the IL-17A result is reported as “varying degrees of reduction”.
Take “VLQWAKKGYYTMK (not fully specified (C-terminus)) [13-mer peptides]”: in data set [3], the development of diabetes result is recorded as “significant effects on the development of diabetes”.
Regarding “VLRWAPKGYYTISSN [SEQ ID NO: 13, VLRWAPKGYYTISSN]”, in data set [4] (setting [6]), the adverse effects entry is recorded as “None of the dogs experienced any adverse effects”; the chemistry panel numbers result is “normal”; the “impact on WBC and RBC” value is reported as “no negative impacts”. In addition, the “blood chemistry panels versus samples prior to treatment” value in data set [4] (each improved from blood samples prior to treatment) is given as “normal levels on most parameters”.
Consider “YKNVKQMAYWLTGKS [scrambled 15-mer peptide]”, for which the “effect on blood glucose” value in data set [5] was “no effect”.
